Source: patent US9492403B2, “Method of treating overactive bladder, not due to cancer, by administering at least one jasmonate” (Broady Health Sciences, LLC, priority 2010, dated 2016)

Test: Study in five subjects with urinary bladder dysfunction symptoms taking Jasmone once a day for 30 days
Assay type: in vivo, human
From the text: Five subjects, 4 male and 1 female agreed to participate in the study. Subjects ranged in age from 55-73 with average age being 67. All participants experienced noticeable urinary bladder dysfunction symptoms including frequency, urgency, and reduced urine flow. Subjects took from 50 to 100 micrograms of Jasmone once a day for 30 days. At two weeks approximately ½ of the subjects experienced improved bladder function. […] For example, several subjects noted that before treatment they averaged 2 night time awakenings to urinate which was reduced to 1 or 0 subsequent to taking Jasmone. Other subjects had even greater improvement from an average of 3-4 night awakenings to urinate to 1. […] In addition several male subjects reported increased flow of discharge up to 100%.

In the case of `CC/C=C\CC1=C(C)CCC1=O` [Jasmone], the “reduction of daytime bathroom visits” value (50 to 100 micrograms once a day for 30 days) was “approximately 50%”, the “fraction of subjects who experienced improved bladder function” value (at two weeks, 50 to 100 micrograms of Jasmone once a day, five subjects aged 55-73) was “approximately ½” and the “subject-reported improvements in frequency, urgency, and urine flow” value (by day thirty, 50 to 100 micrograms once a day) was “all subjects reported improvements in frequency, urgency, and urine flow”. The “night awakenings to urinate after treatment” value (other subjects, average of 3-4 before treatment) was 1, the “increased flow of discharge” value (several male subjects) was “up to 100%” and the “"holding time" (urgency) after treatment” value (several patients, from approximately 10 minutes before treatment, i.e. during extended air travel) was ~60 min.
